In patent publication US20240268372A1, “Methods and Compositions for Extending Organ and Tissue Preservation” (The General Hospital Corporation, priority 2021, published 2024):
Several values for one entry are separate records, joined by “and”; a condition that tells them apart may be missing. Identical values can stand only once.

Columns and labels:
whole rat livers [1] = test: Optimized partial freezing of whole rat livers: ex vivo simulated transplantation (normothermic reperfusion with whole blood)
Procedure: (§1) Within this standardized protocol, we first compared GLY, EG, and PG as main permeating CPA using a freezing temperature of −10° C. and storage duration of 1 day (FIG. 37). Using PG as the CPA, we subsequently tested the effect of freezing temperature (−10° C. vs −15° C.) and storage duration (1 day vs 5 days) on liver viability after partial freezing using the same protocol (FIG. 38).
The Affinity Pixie Oxygenator is a clinical grade oxygenator that has graduated fiber bundle density technology and radial flow path that is designed to create a more uniform blood flow, enhance gas transfer, reduce pressure drops, and decrease prime volume. Moreover, it also contains a Balance® Biosurface that contains a hydrophilic polymer coating to reduce platelet adhesion and activation. This adaptation to the oxygenator is essential since recirculating whole blood during simulated transplantation may trigger coagulation and inflammatory events that are not representative of in vivo events and could skew observed outcomes.
(§2) Machine perfusion system: The perfusion system provides a continuous perfusion through the portal vein that is pressure, flow, and temperature controlled. The perfusates can be either recirculated or flushed with a single pass though the liver and perfusates can be changed without interrupting perfusion. The setup and operation of the perfusion system is described in detail elsewhere (see, e.g., ref. 15). There were two oxygenators used in this study, including the Radnoti (Cat #130144) and Affinity Pixie Oxygenator (Cat #BBP241). Due to the flexibility and low cost of the Radnoti oxygenator, it was first used for initial optimization and characterization studies, including determining the effect of permeating CPAs (GLY vs EG vs PG; FIG. 37), temperature (−10 vs −15° C., FIG. 38) storage duration (1 vs 5 days, FIG. 38), and warm ischemic injury.
Preconditioning during SNMP: Directly after procurement the livers were perfused with 250 ml of SNMP preloading solution (see Table 7 for composition of all solutions). The perfusion temperature was set at 21° C. and perfusion was initiated at 5 ml/min. […] Next, the livers were perfused for 30 additional minutes to allow for cellular uptake of 3-O-methyl-D-glucose (3-OMG).
Preloading of CPAs during HMP: The SNMP preloading solution was gradually switched to HMP preloading solution in […] increments, each with 10% decreasing and 10% increasing volumetric fractions of SNMP and HMP preloading solution, respectively. During this switch, the perfusion temperature was lowered to 4° C., and flows were adjusted to a maximum perfusion pressure of 3 mmHg. Dependent on the flowrate, the solution switch took 10-15 minutes. The HMP preloading was continued for 30 additional minutes to ensure complete equilibration of the solution throughout the peripheral liver tissue.
This was done in 10 fractions of 10 ml, each with 10% decreasing and 10% increasing volumetric fractions of HMP preloading solution and storage solution, respectively. During this switch, the perfusion temperature was maintained at 4° C., and the flowrates were lowered to ensure a maximum perfusion pressure of 3 mmHg. The final 15 ml fraction of 100% storage solution was loaded at a fixed flowrate of 0.5 ml/min.
Partial freezing: After loading of the storage solution, the liver was placed in a bag with 50 ml fresh storage solution and suspended in a pre-cooled chiller (Engel, Schwertberg, Austria). Depending on the experimental condition the chiller temperature was pre-cooled to −10° C. or −15° C. and the liver stored for […] 5 days.

whole rat livers [2] = test: Optimized partial freezing of whole rat livers: SNMP recovery after freezing; settings: −15° C., 5 days; at 3 h
Procedure: as §1
as §2, with “injury. Once the major aspects of the protocol were optimized and characterized, we used the clinical grade Affinity Pixie Oxygenator. […]” for “injury.”

[3] = −10° C., 1 day, at 2 h of simulated transplantation
[4] = clinical grade oxygenator, −15° C., 1 day
[5] = clinical grade oxygenator, −15° C., 1 day, at 2 h
[6] = clinical grade oxygenator, −15° C., 5 day
[7] = clinical grade oxygenator, −15° C., 5 day, at 2 h

## OCCO [EG, ethylene glycol]
Whole rat livers [1]; −10° C., 1 day
  bile production during simulated transplantation: did not produce bile
  lactate clearance after first hour of simulated transplantation: not observed
  microscopic tissue structure (H&E, blinded pathologist): favorable to modest results
Whole rat livers [1]; −10° C., 1 day, at 2 h
  oxygen uptake during simulated transplantation: 21.4 ± 5.8 µL O2/min/g
  tissue adenylate energy charge: 0.088±0.065
  weight gain during simulated transplantation: 2.50±5.26%
Whole rat livers [1]; [3]
  AST levels: 967±330 U/L
  portal lactate concentration: 6.68 ± 1.71 mM

## CC(O)CO (stereo not shown) [PG, propylene glycol]
Whole rat livers [1]; 30 minutes warm ischemia prior to freezing at −10° C. for 1 day, at 2 h of simulated transplantation
  lactate: 6.37 ± 1.09 mM
Whole rat livers [1]; clinical grade oxygenator, 1 day frozen vs Clinical Oxy. Controls
  HSP70 in perfusate: increase
Whole rat livers [1]; clinical grade oxygenator, across all groups
  TNFα levels in perfusate: no changes
Whole rat livers [1]; clinical grade oxygenator, frozen livers versus controls
  8OHdG in perfusate: significantly lower
Whole rat livers [1]; [4]
  maximum ALT: 722.00±155.74 U/L
  maximum AST: 958.67±278.50 U/L
  potassium level at end of simulated transplantation: 5.23 ± 0.252 mM
Whole rat livers [1]; [5]
  bile production: 0.67 ± 0.92 µL/g
  liver weight gain during simulated transplantation: 12.00±8.66%
  vascular resistance: 0.004±0.002 mmHg*min*mL-i*g^−1
Whole rat livers [1]; [6]
  maximum ALT: 886.67±241.80 U/L
  maximum AST: 1190.33±117.35 U/L
  potassium level at end of simulated transplantation: 5.167 ± 0.404 mM
Whole rat livers [1]; [7]
  bile production: 2.92 ± 3.74 µL/g
  vascular resistance: 0.007±0.010 mmHg*min*mL-i*g^−1
Whole rat livers [1]; clinical grade oxygenator, −15° C., 5 days
  tissue adenylate energy charge: 0.131±0.031
Whole rat livers [1]; clinical grade oxygenator, −15° C., 5 days, at 2 h
  liver weight gain during simulated transplantation: 26.00±15.13%
Whole rat livers [1]; −10° C. and −15° C., 1 day
  microscopic tissue structure: some disruption of the lobular architecture with intact portal triads and hepatocyte swelling
Whole rat livers [1]; −10° C., 1 day
  bile production during simulated transplantation: did produce bile
  lactate clearance after first hour of simulated transplantation: cleared lactate
  microscopic tissue structure (H&E, blinded pathologist): favorable to modest results
Whole rat livers [1]; −10° C., 1 day, at 1 h
  AST levels: 567±172 U/L
  oxygen uptake during simulated transplantation: 36.9 ± 2.34 µL O2/min/g
Whole rat livers [1]; −10° C., 1 day, at 2 h
  oxygen uptake during simulated transplantation: 38.2 ± 3.66 µL O2/min/g
  vascular resistance during simulated transplantation: 0.019±0.011 mmHg*min*mL^−1*g^−1
  weight gain during simulated transplantation: 4.00±9.20%
Whole rat livers [1]; [3]
  AST levels: 979±520 U/L and 979±521 U/L
  portal lactate concentration: 2.95 ± 1.73 mM
  total cumulative bile volume: 3.56 ± 4.02 µL/g
Whole rat livers [1]; −15° C., 1 and 5 days
  lactate clearance during simulated transplantation: no lactate clearance was observed
Whole rat livers [1]; −15° C., 1 day
  bile production during simulated transplantation: 6.11 ± 4.69 µL/g
  tissue adenylate energy charge: 0.061±0.019
Whole rat livers [1]; −15° C., 1 day, at 1 h
  AST levels: 1283±224 U/L
  oxygen uptake during simulated transplantation: 23.5 ± 4.68 µL O2/min/g
Whole rat livers [1]; −15° C., 1 day, at 2 h
  AST levels: 1995±530 U/L
  lactate level at end of simulated transplantation: 5.21 ± 2.67 mM
  maximum ALT: 2335±597 U/L
  maximum potassium: 5.05 ± 0.48 mM
  oxygen uptake during simulated transplantation: 24.9 ± 2.38 µL O2/min/g
  vascular resistance during simulated transplantation: 0.021±0.010 mmHg*min*mL^−1*g^−1 and 0.011±0.004 mmHg*min*mL^−1*g^−1
Whole rat livers [1]; −15° C., 5 days
  bile production during simulated transplantation: 3.32 ± 2.43 µL/g
  microscopic tissue structure: moderate to marked loss of LSECs
  tissue adenylate energy charge: 0.062±0.029
Whole rat livers [1]; −15° C., 5 days, at 2 h
  lactate level at end of simulated transplantation: 5.73 ± 1.29 mM
  maximum ALT: 2316±242 U/L
  maximum potassium: 4.95 ± 0.48 mM
  oxygen uptake during simulated transplantation: 25.4 ± 9.78 µL O2/min/g
  vascular resistance during simulated transplantation: 0.021±0.021 mmHg*min*mL^−1*g^−1
  weight gain during simulated transplantation: 30.25±5.56%
Whole rat livers [2]
  weight gain during SNMP recovery after freezing: 40.00±4.32%
